Values after ≈ are worked out from the molar mass of the structure shown. Active and inactive are the calls of the source. No cut-off for these calls is given here.
Legend:
[1] = target: T1, Peroxisome proliferator-activated receptor alpha (Homo sapiens) (UniProt Q07869); test: Transactivation of human PPARalpha expressed in African green monkey COS7 cells incubated overnight by dual-glo luciferase reporter assay relative to GW7647; format: cell-based; conditions: COS-7
T1 sequence (whole entry): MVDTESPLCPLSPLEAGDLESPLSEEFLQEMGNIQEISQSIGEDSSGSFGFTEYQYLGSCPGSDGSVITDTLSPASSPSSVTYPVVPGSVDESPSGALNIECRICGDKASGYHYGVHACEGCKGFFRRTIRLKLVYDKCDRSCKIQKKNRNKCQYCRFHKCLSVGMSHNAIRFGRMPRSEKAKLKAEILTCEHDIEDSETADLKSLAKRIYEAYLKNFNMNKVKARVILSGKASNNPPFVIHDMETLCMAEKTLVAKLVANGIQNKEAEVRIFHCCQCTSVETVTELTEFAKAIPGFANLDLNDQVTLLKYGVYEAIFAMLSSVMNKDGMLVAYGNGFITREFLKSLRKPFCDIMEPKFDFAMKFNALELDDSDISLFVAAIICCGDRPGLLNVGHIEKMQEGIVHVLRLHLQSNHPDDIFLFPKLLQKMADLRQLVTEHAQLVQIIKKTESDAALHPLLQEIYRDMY

[2] = target: T2, Peroxisome proliferator-activated receptor delta (Homo sapiens, UniProt Q03181); test: Transactivation of human PPARdelta expressed in African green monkey COS7 cells incubated overnight by dual-glo luciferase reporter gene assay; format: cell-based; conditions: cos-7
T2 sequence (Q03181 whole entry): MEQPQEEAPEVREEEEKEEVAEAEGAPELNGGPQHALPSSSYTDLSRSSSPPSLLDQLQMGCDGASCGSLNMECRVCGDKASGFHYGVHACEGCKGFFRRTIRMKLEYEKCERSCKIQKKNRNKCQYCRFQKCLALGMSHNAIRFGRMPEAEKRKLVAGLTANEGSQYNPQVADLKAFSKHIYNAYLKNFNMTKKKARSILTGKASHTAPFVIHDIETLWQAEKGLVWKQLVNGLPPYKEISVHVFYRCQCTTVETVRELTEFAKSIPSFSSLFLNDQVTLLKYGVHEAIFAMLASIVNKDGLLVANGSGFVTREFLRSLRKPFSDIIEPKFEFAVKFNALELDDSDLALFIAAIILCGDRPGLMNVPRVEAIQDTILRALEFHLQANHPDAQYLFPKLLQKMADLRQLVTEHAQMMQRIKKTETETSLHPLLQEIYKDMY

[3] = target: T3, Peroxisome proliferator-activated receptor alpha (Homo sapiens, UniProt Q07869)
T3 sequence (Q07869 whole entry): T1 sequence (whole entry)
Description: (§1) Transactivation of human PPARalpha expressed in African green monkey COS7 cells incubated overnight by dual-glo luciferase reporter gene assay

[4] = target: T4, Peroxisome proliferator-activated receptor delta (Homo sapiens) (UniProt Q03181); test: Transactivation of human PPARdelta expressed in African green monkey COS7 cells at 10 uM incubated overnight by dual-glo luciferase reporter assay; format: cell-based; conditions: COS-7
T4 sequence (whole entry): T2 sequence (Q03181 whole entry)

[5] = target: T3, Peroxisome proliferator-activated receptor alpha; conditions: cos-7
Description: as §1

[6] = target: T5, Peroxisome proliferator-activated receptor gamma (Homo sapiens) (UniProt P37231); test: Transactivation of human PPARgamma expressed in African green monkey COS7 cells at 10 uM incubated overnight by dual-glo luciferase reporter gene assay; format: cell-based; conditions: COS-7
T5 sequence (whole entry): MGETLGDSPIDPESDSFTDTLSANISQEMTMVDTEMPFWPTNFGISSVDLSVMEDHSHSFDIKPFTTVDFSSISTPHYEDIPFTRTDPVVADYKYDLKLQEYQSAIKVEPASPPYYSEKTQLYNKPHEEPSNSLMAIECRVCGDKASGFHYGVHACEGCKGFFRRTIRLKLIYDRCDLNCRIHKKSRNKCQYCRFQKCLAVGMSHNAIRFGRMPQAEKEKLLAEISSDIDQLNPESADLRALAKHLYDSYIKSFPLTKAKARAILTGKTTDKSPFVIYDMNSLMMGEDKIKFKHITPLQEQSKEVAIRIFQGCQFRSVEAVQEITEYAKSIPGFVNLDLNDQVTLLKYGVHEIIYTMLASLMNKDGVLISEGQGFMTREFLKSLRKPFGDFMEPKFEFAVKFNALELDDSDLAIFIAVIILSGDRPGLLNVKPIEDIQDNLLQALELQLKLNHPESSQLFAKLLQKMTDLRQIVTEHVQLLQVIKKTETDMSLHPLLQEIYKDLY

[7] = target: T6, Bifunctional epoxide hydrolase 2 (Homo sapiens, UniProt P34913); test: Inhibition of human recombinant sEH using PHOME as substrate preincubated for 30 mins followed by substrate addition measured for 30 mins by fluorescence-based assay
T6 sequence (P34913 whole entry): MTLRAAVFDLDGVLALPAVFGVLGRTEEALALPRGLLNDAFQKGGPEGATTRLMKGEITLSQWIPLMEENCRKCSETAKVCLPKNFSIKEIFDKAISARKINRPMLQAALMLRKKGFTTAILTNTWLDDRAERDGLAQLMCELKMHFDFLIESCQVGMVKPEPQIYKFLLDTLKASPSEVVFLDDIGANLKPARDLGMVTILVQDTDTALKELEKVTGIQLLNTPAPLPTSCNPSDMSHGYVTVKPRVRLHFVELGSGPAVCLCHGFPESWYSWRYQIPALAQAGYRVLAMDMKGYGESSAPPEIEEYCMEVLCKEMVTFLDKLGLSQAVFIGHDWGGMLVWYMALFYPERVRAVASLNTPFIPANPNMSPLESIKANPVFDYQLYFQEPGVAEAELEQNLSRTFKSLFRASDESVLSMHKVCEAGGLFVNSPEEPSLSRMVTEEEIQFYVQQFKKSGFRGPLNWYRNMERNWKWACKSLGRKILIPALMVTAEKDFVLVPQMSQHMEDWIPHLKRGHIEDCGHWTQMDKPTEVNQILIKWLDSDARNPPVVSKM

[8] = Solubility of the compound in water by microplate reader analysis; format: physicochemical
[9] = target: T7, Peroxisome proliferator-activated receptor gamma (Homo sapiens, UniProt P37231); conditions: cos-7
T7 sequence (P37231 whole entry): T5 sequence (whole entry)
Description: Transactivation of human PPARgamma expressed in African green monkey COS7 cells incubated overnight by dual-glo luciferase reporter gene assay

[10] = target: T8, Peroxisome proliferator-activated receptor gamma (Mus musculus) (UniProt P37238); test: Transactivation of PPARgamma in mouse 3T3L1 cells assessed as increase in LPL expression by qPCR method; format: cell-based; conditions: 3T3-L1
T8 sequence (whole entry): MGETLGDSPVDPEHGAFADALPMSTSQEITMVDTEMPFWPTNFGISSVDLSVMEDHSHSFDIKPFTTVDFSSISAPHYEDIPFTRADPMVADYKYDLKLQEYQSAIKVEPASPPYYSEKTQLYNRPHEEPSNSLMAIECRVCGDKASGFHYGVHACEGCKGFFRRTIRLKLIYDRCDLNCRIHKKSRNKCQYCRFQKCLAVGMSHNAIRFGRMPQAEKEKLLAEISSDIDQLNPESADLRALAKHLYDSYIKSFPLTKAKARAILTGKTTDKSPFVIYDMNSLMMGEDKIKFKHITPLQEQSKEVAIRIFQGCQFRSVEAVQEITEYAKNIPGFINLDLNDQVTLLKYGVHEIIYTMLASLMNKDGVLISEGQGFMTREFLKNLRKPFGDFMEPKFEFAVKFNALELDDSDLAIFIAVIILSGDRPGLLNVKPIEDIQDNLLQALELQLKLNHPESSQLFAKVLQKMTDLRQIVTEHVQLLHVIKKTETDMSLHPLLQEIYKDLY

[11] = Apparent oral clearance in RjOrl:Swiss (CD-1) mouse plasma at 30 mg/kg; format: ADME, organism-based
[12] = target: T8, Peroxisome proliferator-activated receptor gamma (Mus musculus); test: Transactivation of PPARgamma in mouse 3T3L1 cells assessed as increase in FABP4 expression by qPCR method; format: cell-based; conditions: 3T3-L1
[13] = target: T5, Peroxisome proliferator-activated receptor gamma (Homo sapiens); test: Transactivation of PPARgamma in human primary preadipocytes assessed as increase in LPL expression at 10 uM by qPCR method; format: cell-based
[14] = target: T5, Peroxisome proliferator-activated receptor gamma (Homo sapiens); test: Transactivation of PPARgamma in human primary preadipocytes assessed as increase in […] expression at 10 uM by qPCR method; format: cell-based
[15] = target: T8, Peroxisome proliferator-activated receptor gamma (Mus musculus); test: Transactivation of PPARgamma in mouse 3T3L1 cells assessed as adipocyte differentiation by Oil Red O staining-based assay; format: cell-based; conditions: 3T3-L1
HepG2 = test: Cytotoxicity against human HepG2 cells assessed as cell viability up to 30 uM after 48 hrs by WST-1 assay; format: cell-based; conditions: hepg2, 48 h
[16] = target: T8, Peroxisome proliferator-activated receptor gamma (Mus musculus); test: Transactivation of PPARgamma in mouse 3T3L1 cells assessed as increase in adiponectin expression by qPCR method; format: cell-based; conditions: 3T3-L1
[17] = target: T8, Peroxisome proliferator-activated receptor gamma (Mus musculus); test: Transactivation of PPARgamma in mouse 3T3L1 cells assessed as increase in […] expression by qPCR method; format: cell-based; conditions: 3T3-L1
[18] = target: T5, Peroxisome proliferator-activated receptor gamma (Homo sapiens); test: Transactivation of PPARgamma in human primary preadipocytes assessed as increase in adiponectin expression at 10 uM by qPCR method; format: cell-based
[19] = target: T5, Peroxisome proliferator-activated receptor gamma (Homo sapiens); test: Transactivation of PPARgamma in human primary preadipocytes assessed as increase in FABP4 expression at 10 uM by qPCR method; format: cell-based
[20] = target: T5, Peroxisome proliferator-activated receptor gamma (Homo sapiens); test: Transactivation of PPARgamma in human primary preadipocytes assessed as adipocyte differentiation by Oil Red O staining-based assay; format: cell-based
Mus musculus [21] = test: Drug level in RjOrl:Swiss (CD-1) mouse plasma treated with Ethyl 2-Ethyl 3-[4-(N-((2-trifluoromethyl)benzyl)benzamide)]propanoate at 30 mg/kg, po administered as single dose; format: ADME, organism-based; conditions: in vivo
Mus musculus [22] = test: Tmax in RjOrl:Swiss (CD-1) mouse plasma assessed as 2-Ethyl-3-[4-(N-((2-trifluoromethyl)benzyl)benzamide)]-propionic Acid at 30 mg/kg, po administered as single dose; format: ADME, organism-based; conditions: in vivo
Mus musculus [23] = test: Drug metabolism in RjOrl:Swiss (CD-1) mouse plasma assessed as 2-Ethyl-3-[4-(N-((2-trifluoromethyl)benzyl)benzamide)]-propionic Acid formation at 30 mg/kg, po administered as single dose; format: ADME, organism-based; conditions: in vivo
Mus musculus [24] = test: Apparent volume of distribution during terminal phase in RjOrl:Swiss (CD-1) mouse plasma assessed as 2-Ethyl-3-[4-(N-((2-trifluoromethyl)benzyl)benzamide)]-propionic Acid at 30 mg/kg, po administered as single dose; format: ADME, organism-based; conditions: in vivo
Mus musculus [25] = test: Apparent oral clearance in RjOrl:Swiss (CD-1) mouse plasma assessed as 2-Ethyl-3-[4-(N-((2-trifluoromethyl)benzyl)benzamide)]-propionic Acid at 30 mg/kg administered as single dose; format: ADME, organism-based; conditions: in vivo
Mus musculus [26] = test: AUC (0 to infinity) in RjOrl:Swiss (CD-1) mouse plasma assessed as 2-Ethyl-3-[4-(N-((2-trifluoromethyl)benzyl)benzamide)]-propionic Acid at 30 mg/kg, po administered as single dose; format: ADME, organism-based; design: dose 30 mg/kg, route oral, time infinity; conditions: in vivo
Mus musculus [27] = test: Cmax in RjOrl:Swiss (CD-1) mouse plasma assessed as 2-Ethyl-3-[4-(N-((2-trifluoromethyl)benzyl)benzamide)]-propionic Acid at 30 mg/kg, po administered as single dose; format: ADME, organism-based; design: dose 30 mg/kg, route oral; conditions: in vivo
Brain = test: Drug uptake in RjOrl:Swiss (CD-1) mouse brain assessed as 2-Ethyl-3-[4-(N-((2-trifluoromethyl)benzyl)benzamide)]-propionic Acid at 30 mg/kg, po administered as single dose; format: ADME, organism-based; conditions: in vivo

Compound	Emax [1]	EC50 [2]	Emax [4]	EC50 [5]	solubility [8]	further results
CCOC(=O)C(CC)Cc1ccc(C(=O)NCc2ccc(Oc3ccccc3)cc2)cc1 (configuration not stated)	110%	Not Active	–	–	–	EC50 [3]: 4 µM
O=C(O)c1cccc(-c2ccc(C(=O)NCc3ccccc3C(F)(F)F)cc2)c1	inactive	Not Active	inactive	Not Active	–	Activity [6]: 28%
CCOC(=O)C(CC)Cc1ccc(C(=O)NCc2ccccc2Br)cc1 (configuration not stated)	inactive	Not Active	–	Not Active	20 µM (≈ 8.37 µg/mL)	IC50 [7]: 4 µM; EC50 [9]: Not Active
CCC(Cc1ccc(C(=O)NCc2ccccc2C(F)(F)F)cc1)C(=O)O (configuration not stated)	inactive	Not Active	inactive	Not Active	75 µM (≈ 28.5 µg/mL)	Activity [10]: Dose-dependent effect; CL/F [11]: 31.7 mL/min/kg; Activity [12]: Dose-dependent effect; Activity [13]: Active; Activity [14]: Active; Activity [15]: Dose-dependent effect; Activity (HepG2): Non-toxic; Activity [16]: Dose-dependent effect; Activity [17]: Dose-dependent effect; Activity [18]: Active; Activity [19]: Active; Activity [20]: Dose-dependent effect; Drug metabolism (Mus musculus [21]): metabolite_detected
O=C(NCc1ccccc1C(F)(F)F)c1ccc(-c2nnn[nH]2)cc1	inactive	Not Active	inactive	Not Active	375 µM (≈ 130 µg/mL)	EC50 [9]: Not Active
CCC(Cc1ccc(C(=O)NCc2ccc(Oc3ccccc3)cc2)cc1)C(=O)O (configuration not stated)	–	–	20%	–	–	IC50 [7]: 12 µM; EC50 [3]: 0.9 µM
CON(C)C(=O)C1CC1c1ccc(C(=O)NCc2ccccc2C(F)(F)F)cc1 (configuration not stated)	inactive	Not Active	inactive	Not Active	–	Activity [6]: 30%
CCC(Cc1ccc(C(=O)NCc2ccc(C(F)(F)F)cc2)cc1)C(=O)O (configuration not stated)	–	Not Active	–	–	–	IC50 [7]: 7.2 µM; EC50 [3]: 7 µM
CCOC(=O)C(CC)Cc1ccc(C(=O)NCc2ccccc2C(F)(F)F)cc1 (configuration not stated)	inactive	Not Active	inactive	Not Active	2.5 µM (≈ 1.02 µg/mL)	Tmax (Mus musculus [22]): 30 min; Drug metabolism (Mus musculus [23]): metabolite_detected; Vz/F (Mus musculus [24]): 54.3 L/kg; CL/F (Mus musculus [25]): 125 mL/min/kg; AUC (Mus musculus [26]): 4026 ng·h/mL; Cmax (Mus musculus [27]): 2000 nM; Drug uptake (Brain): 30 ng/g
CON(C)C(=O)/C=C/c1ccc(C(=O)NCc2ccccc2C(F)(F)F)cc1	inactive	Not Active	inactive	Not Active	–	EC50 [9]: Not Active
O=C(O)c1ccc(-c2ccc(C(=O)NCc3ccccc3C(F)(F)F)cc2)cc1	inactive	Not Active	inactive	Not Active	3.75 µM (≈ 1.5 µg/mL)	Activity [6]: 30%

From ChEMBL document CHEMBL3763124, “N-Benzylbenzamides: A Novel Merged Scaffold for Orally Available Dual Soluble Epoxide Hydrolase/Peroxisome Proliferator-Activated Receptor γ Modulators” (J Med Chem, 2016)
